The results in this text go back to PubChem BioAssay (NCI).

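Compound exposure: 48 hours, 5 concentrations, 96-well plates. TGI: concentration producing complete growth inhibition.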

Some test systems named below: CCRF-CEM leukemia; DU-145 prostate; HCT-15 colon; HL-60(TB) leukemia; HOP-62 NSCLC; HT29 colon; M14 melanoma; MCF7 breast; MDA-MB-231 breast; MDA-MB-435; NCI-H460 lung; SK-MEL-2 melanoma; SK-MEL-5 melanoma; SN12C renal; SNB-19 CNS; SW-620 colon; TK-10 renal; UACC-62 melanoma.
Experiment in all cases: growth of human tumour cells (NCI), 48 h

For the molecule `O=C1CSC(c2ccccc2)N1c1ccc(-c2ccc(-n3c(-c4ccccc4)nc4ccccc4c3=O)cc2)cc1` (stereo not given), the TGI in the experiment with CCRF-CEM leukemia, in the experiment on DU-145 prostate, with HCT-15 colon, in the experiment on HL-60(TB) leukemia, in the experiment with HOP-62 NSCLC and in the experiment on HT29 colon was more than 100 µM each time. The TGI in the experiment on M14 melanoma, in the experiment with MCF7 breast, with MDA-MB-231 breast, in the experiment on MDA-MB-435, with NCI-H460 lung and with SK-MEL-2 melanoma was more than 100 µM in each case. For the same molecule, the TGI with SK-MEL-5 melanoma, in the experiment on SN12C renal, with SNB-19 CNS, with SW-620 colon, with TK-10 renal and in the experiment with UACC-62 melanoma was more than 100 µM each time.

`CC/C(Cl)=N\OC(=O)Nc1ccc(F)c(Cl)c1`: the TGI came to 4.91 µM with CCRF-CEM leukemia; 34.2 µM in the experiment on DU-145 prostate; 35.5 µM with HCT-15 colon; 4.33 µM in the experiment with HL-60(TB) leukemia; 34.3 µM with HOP-62 NSCLC; 55.2 µM with HT29 colon. The TGI in the experiment on M14 melanoma was found to be 23.1 µM; in the experiment with MCF7 breast, 20.1 µM; in the experiment on MDA-MB-231 breast it was 41.5 µM; in the experiment on MDA-MB-435, 39.4 µM; with NCI-H460 lung, 34.3 µM; in the experiment on SK-MEL-2 melanoma, 33.5 µM. Moreover, the TGI is 29 µM with SK-MEL-5 melanoma; 40.2 µM in the experiment with SN12C renal; 20.7 µM in the experiment on SNB-19 CNS; 6.92 µM in the experiment with SW-620 colon; 31.3 µM in the experiment with TK-10 renal; 46.3 µM in the experiment on UACC-62 melanoma.

Turning to `CN(C)c1n2c3ccc([N+](=O)[O-])cc3n3c(N(C)C)[n+]4ccccc4c3c2c2cccc[n+]12`, the TGI in the experiment with CCRF-CEM leukemia, in the experiment on DU-145 prostate, in the experiment on HCT-15 colon, with HL-60(TB) leukemia, in the experiment with HOP-62 NSCLC and in the experiment with HT29 colon was more than 100 µM each time. The TGI in the experiment on M14 melanoma, in the experiment on MCF7 breast, with MDA-MB-231 breast, in the experiment with MDA-MB-435, with NCI-H460 lung and with SK-MEL-2 melanoma was more than 100 µM each time. For the same molecule, the TGI in the experiment with SK-MEL-5 melanoma, in the experiment with SN12C renal, in the experiment with SNB-19 CNS, with SW-620 colon, with TK-10 renal and with UACC-62 melanoma was more than 100 µM each time.

As to `CNC(=O)O/N=C1\N(C)CN(c2ccccc2)C12CCN(CCCC(=O)c1ccc(F)cc1)CC2`, the TGI with CCRF-CEM leukemia, in the experiment on DU-145 prostate, in the experiment with HCT-15 colon, in the experiment with HL-60(TB) leukemia, with HOP-62 NSCLC and in the experiment with HT29 colon was more than 100 µM in each case. Also, the TGI was 32.9 µM in the experiment with M14 melanoma; more than 100 µM in the experiment with MCF7 breast; more than 100 µM with MDA-MB-231 breast; more than 100 µM with MDA-MB-435; more than 100 µM in the experiment with NCI-H460 lung; more than 100 µM in the experiment on SK-MEL-2 melanoma. Moreover, the TGI was 33 µM in the experiment with SK-MEL-5 melanoma; more than 100 µM in the experiment with SN12C renal; more than 100 µM with SNB-19 CNS; more than 100 µM in the experiment on SW-620 colon; more than 100 µM with TK-10 renal; more than 100 µM in the experiment with UACC-62 melanoma.

Take `C=C1N(C)c2ccc(S(=O)(=O)c3ccc4c(c3)C(C)(C)C(=C)N4C)cc2C1(C)C`: the TGI in the experiment on CCRF-CEM leukemia, with DU-145 prostate, in the experiment on HCT-15 colon, in the experiment with HL-60(TB) leukemia, with HOP-62 NSCLC and with HT29 colon was more than 100 µM each time. Further, the TGI with M14 melanoma, with MCF7 breast, with MDA-MB-231 breast, with MDA-MB-435, in the experiment on NCI-H460 lung and in the experiment on SK-MEL-2 melanoma was more than 100 µM in each case. Moreover, the TGI in the experiment on SK-MEL-5 melanoma was 43.6 µM; in the experiment on SN12C renal it was more than 100 µM; in the experiment on SNB-19 CNS it was more than 100 µM; with SW-620 colon it was more than 100 µM; in the experiment on TK-10 renal, more than 100 µM; in the experiment on UACC-62 melanoma it was more than 100 µM.

With `CC(C)N(C(C)C)S(=O)(=O)CC12CCC(C/C1=N\O)C2` (stereo not given), the TGI in the experiment on CCRF-CEM leukemia, in the experiment with DU-145 prostate, in the experiment with HCT-15 colon, in the experiment with HL-60(TB) leukemia, in the experiment on HOP-62 NSCLC and in the experiment with HT29 colon was more than 100 µM throughout. The TGI in the experiment on M14 melanoma, in the experiment on MCF7 breast, with MDA-MB-231 breast, with MDA-MB-435, in the experiment on NCI-H460 lung and with SK-MEL-2 melanoma was more than 100 µM each time. Moreover, the TGI in the experiment on SK-MEL-5 melanoma, with SN12C renal, in the experiment on SNB-19 CNS, with SW-620 colon, in the experiment with TK-10 renal and in the experiment with UACC-62 melanoma was more than 100 µM in each case.

Turning to `COC1(OC)CCN(Cc2ccccc2)C1=O`, the TGI amounted to 6.3 µM with CCRF-CEM leukemia; 29.2 µM in the experiment with DU-145 prostate; 38.6 µM in the experiment with HCT-15 colon; 4.15 µM in the experiment on HL-60(TB) leukemia; 38.6 µM in the experiment with HOP-62 NSCLC; 21.4 µM with HT29 colon. Also, the TGI with M14 melanoma came to 23 µM; with MCF7 breast, 25.3 µM; with MDA-MB-231 breast, 38.8 µM; with MDA-MB-435, 29.8 µM; in the experiment on NCI-H460 lung, 41.2 µM; in the experiment with SK-MEL-2 melanoma, 34 µM. Moreover, the TGI with SK-MEL-5 melanoma was determined as 29.2 µM; with SN12C renal it was 22.1 µM; in the experiment on SNB-19 CNS it was 34.9 µM; in the experiment with SW-620 colon, 7.28 µM; with TK-10 renal, 29.7 µM; in the experiment on UACC-62 melanoma, 26.1 µM.

Regarding `Nc1ccc(Oc2ccc(C34CC5C6CC7(c8ccc(Oc9ccc(N)cc9)cc8)CC5C(C3)C(C7)C6C4)cc2)cc1`, the TGI in the experiment with CCRF-CEM leukemia, with DU-145 prostate, with HCT-15 colon, in the experiment with HL-60(TB) leukemia, in the experiment on HOP-62 NSCLC and in the experiment on HT29 colon was more than 100 µM in each case. Moreover, the TGI with M14 melanoma, in the experiment with MCF7 breast, with MDA-MB-231 breast, with MDA-MB-435, in the experiment on NCI-H460 lung and in the experiment on SK-MEL-2 melanoma was more than 100 µM throughout. Besides, the TGI in the experiment with SK-MEL-5 melanoma, with SN12C renal, in the experiment with SNB-19 CNS, with SW-620 colon, in the experiment with TK-10 renal and in the experiment with UACC-62 melanoma was more than 100 µM throughout.

Turning to `NC(=O)C1=C(O)[C@@]2(O)C(=O)C3=C(O)c4c(O)cccc4CC3C[C@H]2CC1=O` (stereo not given in full), the TGI in the experiment with CCRF-CEM leukemia was determined as 10.4 µM; in the experiment on DU-145 prostate, 18.6 µM; in the experiment with HCT-15 colon, 6.21 µM; in the experiment on HL-60(TB) leukemia it was 14.9 µM; in the experiment on HOP-62 NSCLC, 14.1 µM; with HT29 colon, 7.34 µM. The TGI in the experiment on M14 melanoma is 13.2 µM; in the experiment on MCF7 breast, more than 49.9 µM; with MDA-MB-231 breast, 11.1 µM; with MDA-MB-435, 40.2 µM; in the experiment on NCI-H460 lung it was 11.8 µM; in the experiment on SK-MEL-2 melanoma it was 4.72 µM. Further, the TGI in the experiment with SK-MEL-5 melanoma was found to be 3.67 µM; in the experiment on SN12C renal, 14.5 µM; in the experiment on SNB-19 CNS, 10.9 µM; with SW-620 colon, 33.6 µM; with TK-10 renal, 43.7 µM; in the experiment on UACC-62 melanoma, 8.61 µM.

For `COc1ccc2nc3c4c(nccc4c2c1)-c1ncccc1C3=O`, the TGI in the experiment on CCRF-CEM leukemia was determined as 2.57 µM; in the experiment with DU-145 prostate it was 0.023 µM; with HCT-15 colon, 0.069 µM; in the experiment with HL-60(TB) leukemia, 0.165 µM; in the experiment with HOP-62 NSCLC, 0.402 µM; with HT29 colon it was 1.14 µM. The TGI in the experiment with M14 melanoma came out at 0.29 µM; in the experiment with MCF7 breast it was 0.179 µM; with MDA-MB-231 breast, 3.94 µM; in the experiment on MDA-MB-435 it was 0.148 µM; in the experiment with NCI-H460 lung it was 0.119 µM; in the experiment with SK-MEL-2 melanoma it was 1.43 µM. For the same molecule, the TGI amounted to 0.111 µM in the experiment with SK-MEL-5 melanoma; 0.298 µM in the experiment on SN12C renal; 0.279 µM with SNB-19 CNS; 0.567 µM in the experiment with SW-620 colon; 0.613 µM in the experiment on TK-10 renal; 0.159 µM with UACC-62 melanoma.
